Assay results reported in patent US20220087987A1, “A METHOD FOR TREATING SWI/SNF COMPLEX-DEFICIENT CANCERS COMPRISING GLUTATHIONE (GSH) METABOLIC PATHWAY INHIBITOR” (National Cancer Center, priority 2018, published 2022).

Columns and labels:
Type in all cases: cell-based, human
[1] = test system: ARID1A-KO cells and ARID1A-deficient cancer cells; test: Apoptosis detection (cleaved caspase-3/7, Annexin V)
Protocol: The Annexin V-FITC/PI Apoptosis Detection Kit (Sigma-Aldrich) was used to detect apoptotic cells. Briefly, the cell pellet was suspended in 1× binding buffer and then incubated with Annexin V-FITC and PI in the dark for 10 min. Fluorescence was analyzed on a Guava flow cytometer (Millipore). Data were analyzed using GuavaSoft software (v. 2.7). Relative ratios of the Annexin V-positive fraction in treated samples were normalized against untreated samples.
GSH, ROS and apoptosis were detected using the GSH/GSSG-Glo Assay (Promega) and/or the GSH-Glo Assay (Promega), the ROS-Glo Assay (Promega), and the Caspase-Glo 3/7 Assay, respectively. To measure levels of GSH, ROS and apoptosis after drug treatment, cells were trypsinized, counted, reseeded at the specified density in 96-well plates and exposed to the indicated concentrations of drugs. After 16-48 hrs, luminescence was measured using an Envision Multi-label plate reader (PerkinElmer). […] Cells were trypsinized after a further 48 hrs, counted, and reseeded at the specified density in 96-well plates. After 72-120 hrs, luminescence was measured using an Envision Multi-label plate reader (PerkinElmer). Cell viability was also measured using the CellTiter-Glo Luminescent Cell Viability Assay (Promega). […] The GSH/GSSG ratio was calculated as the GSH-GSSG signal divided by the GSSG/2 signal. […]

ovarian PDCs = test: Cell viability of ovarian patient-derived cancer cells; conditions: 33 μM APR-246 or 100 μM BSO for 6 days
Protocol: Tumor samples and ascites were obtained from four ovarian cancer patients who underwent surgery or cell-free and concentrated ascites reinfusion therapy at the National Cancer Center Hospital or Kaname-cho Hospital (Tokyo, Japan) and were cultured in vitro. This protocol was approved by the Institutional Review Board of the National Cancer Center (Tokyo, Japan), and informed consent was obtained from the patients. To establish CCCO219 and CCC1216 PDCs, patient ascites (24 ml) were diluted in two volumes of PBS containing 2 mM EDTA, layered over 15 ml Ficoll-Paque PLUS (GE Healthcare), and centrifuged at 2200 rpm for 30 min. The interphase mononuclear layer was transferred to a fresh conical tube and washed twice with PBS containing 2 mM EDTA. […]
Cell viability was examined by measuring the cellular ATP level using the CellTiter-Glo Luminescent Cell Viability Assay (Promega). […] Cells were trypsinized after a further 48 hrs, counted, and reseeded at the specified density in 96-well plates. To measure cell viability after drug treatment, cells were trypsinized, counted, reseeded at the specified density in 96-well plates, and exposed to the indicated concentrations of drugs. Cell viability was measured using the CellTiter-Glo Luminescent Cell Viability Assay. Luminescence was measured using an Envision Multi-label plate reader (PerkinElmer).

[2] = test system: TrxR (TrxR1, TrxR2 and TrxR3); test: Detection of TrxR activity; conditions: 24 hrs
Protocol: TrxR activity including TrxR1, TrxR2 and TrxR3 was measured using the Thioredoxin Reductase Assay Kit (Abcam). Cells were trypsinized, counted, reseeded at the specified density in 10 cm dishes and exposed to the indicated concentrations of APR-246. After 24 hrs, cells were washed with cold PBS and lysed with buffer containing a proteinase inhibitor. After centrifugation, the supernatant was supplemented with a TrxR inhibitor and incubated for 20 min at 25° C. Absorbance was measured using an Envision Multi-label plate reader (PerkinElmer). Relative TrxR ratios were normalized against untreated samples.

COCC1(CO)C(=O)C2CCN1CC2 (stereo not shown) [APR-246]
apoptosis (caspase activation, Annexin V) [1]: induced apoptosis
sensitivity of ARID1A-deficient versus ARID1A-positive PDCs (ovarian PDCs): more sensitive
TrxR activity ([2]; ARID1A-WT or ARID1A-KO HCT116 cells, same concentrations as decrease GSH): did not affect TrxR activity
TrxR activity at a higher concentration ([2]; HCT116 cells, 50 μM): suppressed TrxR activity
